These results are taken from EP0270317A2, “Pharmaceutical compositions for the treatment of diseases caused by viruses” (Kabushiki Kaisha Ueno Seiyaku Oyo Kenkyujo, priority 1986, dated 1988).

Each structure is given as a SMILES string.

The assay has as its system HTLV-III. Kind of assay: inhibition of viral infection, MT-4 cells infected with HTLV-III, time course (Example 18). The format is cell-based. The note with it: sole use of 10 nM AZT or 5 µg/ml dextran sulfate; day 9. The protocol: AIDS virus HTLV-III was challenged to established human T-lymphocyte culture cells MT-4 and the cell suspension and virus particles were incubated at 37°C for 1 hour. The cells were then washed with phosphate buffered saline once and cultured with or without various doses of the test substances in RPMI-1640 medium at 37°C under 5 % CO₂ in an incubator.
MT-4 cells infected with HTLV-III were destructed as the virus proliferated, resulting in decrease of viable cells. Prior to the cytolysis by viral cytopathic effect, the cells infected with HTLV-III which were detectable by indirct immuno fluorescence method appeared. On day 12, number of the living cells was counted to know the extent of infection, and rate of the infected cells was determined by indirect immuno-fluorescence method using an antibody having specificity to the virus specific antigen. As the test substances, 3ʹ-azido-3ʹ-deoxythymidine (AZT) and dextran sulfate(M.W. 7000 - 8000, S-content 17 - 20%) (DS) were used.
In the same procedure as in Expample 7, the MT-4 cells infected with HTLV-III were cultured in medium and the changes in the number of viable cells and the rate of the infected cells were recorded in time course. […]

As to `Cc1cn([C@H]2C[C@H](N=[N+]=[N-])[C@@H](CO)O2)c(=O)[nH]c1=O` [AZT, 3ʹ-azido-3ʹ-deoxythymidine], the infection is 100%.
